# Experimental data taken from patent US5830872A, “Esters of D-mannose or of xylitol and their use as medicaments” (L'Associazione di volontariato "Pro La Fondazione Futuro …, priority 1994, dated 1998).
# Columns and labels:
# [1] = cited from earlier work
# [2] = 95 hours, cited from earlier work
# [3] = system: foetal haemoglobin, in particular the γ chain; details: acids and their salts, cited from earlier work; for synthesis of foetal haemoglobin: in particular γ chain
# [4] = system: HL 60 cells; assay: Antiproliferative test: inhibition of growth of HL 60 cells; assay type: cell-based; details: concentrations 0.5 to 1 mM
# Experimental: The tests were carried out on stabilized cell lines (HL 60 and others) in the absence of growth factors. The concentrations of butyric derivatives vary from 0.5 to 1 mM.
# The following parameters were evaluated by "FASC Scan" scanning and flow cytometry:
# incorporation of tritiated thymidine (exploration of cell metabolism);
# incorporation of propylium iodide (determination of the phase of the cell cycle);
# [5] = system: γ chain of the haemoglobin; assay: Level of γ chain of the haemoglobin in erythroleukaemic cell lines; assay type: cell-based; details: 0.70 mM (α-MAM-A), 0.35 mM (Xyli-C); for level of γ chain of the haemoglobin in the presence of A.P.A.A.P.: 10% without ester; for increase in level of γ chain of the haemoglobin: erythroleukaemic cell lines, normal human serum
# Experimental: The following parameters were evaluated: level of γ chain of the haemoglobin (immunological quantitative determination by double antigen antibody reaction and by immunocytochemical quantitative determination in the presence of alkaline phosphatase-anti-alkaline phosphatase A.P.A.A.P.);
# [6] = cited from earlier work; remark: listed apart in the source
compound,measurement,setting,value
"CCCC(=O)O[C@@H]1[C@H]2OC(C)(C)O[C@H]2O[C@@H]1[C@H](O)CO [3-O-n-butanoyl-1,2-O-isopropylidene-α-D-glucofuranose]",internal transesterification in solution,[1],undergoes an internal transesterification
same,5-O-n-butanoyl isomer in the non-deesterified fraction,"[2]; pH=8.1, 25° C.",4%
same,6-O-n-butanoyl isomer in the non-deesterified fraction,"[2]; pH=8.1, 25° C.",90%
same,initial ester in the non-deesterified fraction,"[2]; pH=8.1, 25° C.",6%
same,deesterification,"[2]; same conditions (pH=8.1, 25° C.), Goueth et al.",20%
O=C(O)CCCc1ccccc1 [4-phenylbutyric acid],γ gene of human foetal haemoglobin,[3],induce the γ gene of human foetal haemoglobin
same,synthesis of foetal haemoglobin,[3],stimulate the synthesis of foetal haemoglobin
"CCCC(=O)OCC1OC(C)(C)OC1C(O)CO (stereo not drawn) [MAXyli-C, 1-O-n-butanoyl-2,3-O-isopropylidenexylitol]",% of inhibition of growth HL 60,[4]; 3 d.,80%
same,% of inhibition of growth HL 60,[4]; 4 d.,90%
"CCCC(=O)OC[C@H](O)[C@@H](O)[C@H](O)CO [Xyli-C, 1-O-n-butanoylxylitol]",% of inhibition of growth HL 60,[4]; 5 d.,70%
same,level of γ chain of the haemoglobin in the presence of A.P.A.A.P.,[5],17%
same,increase in level of γ chain of the haemoglobin,[5],increase the level of γ chain of the haemoglobin
CCCC(=O)O [n-butyric acid],in vivo plasma lifetime,[6],very short in vivo plasma lifetime
same,γ gene of human foetal haemoglobin,[3],induce the γ gene of human foetal haemoglobin
same,synthesis of foetal haemoglobin,[3],stimulate the synthesis of foetal haemoglobin
O=C(O)Cc1ccccc1 [phenylacetic acid],γ gene of human foetal haemoglobin,[3],induce the γ gene of human foetal haemoglobin
same,synthesis of foetal haemoglobin,[3],stimulate the synthesis of foetal haemoglobin
"CCCC(=O)O[C@H]1O[C@H]([C@H](O)CO)[C@@H]2OC(C)(C)O[C@H]12 [α-MAM-A, O-n-butanoyl-2,3-O-isopropylidene-α-D-mannoside]",% of inhibition of growth HL 60,[4]; 2 d.,40%
same,% of inhibition of growth HL 60,[4]; 5 d.,80%
same,level of γ chain of the haemoglobin in the presence of A.P.A.A.P.,[5],22%
same,increase in level of γ chain of the haemoglobin,[5],increase the level of γ chain of the haemoglobin
